Experimental data: the supplement of paper PMC4862054
Values belong to the molecule of their own block, whether it stands above or below them.

Tests used:
[1] = tested on: MDA-MB-453; settings: 72 h
Procedure, shortened: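 Rows with a drug sensitivity score of zero were dropped, and EC50 was taken from the fitted percent-inhibition dose-response curve, censored at the highest concentration. Data were normalised on each plate to vehicle and a positive kill control and checked by Z'-factor. The assay seeded breast cancer cell lines in 20 µl onto 384-well plates pre-loaded with compound in 5 µl medium for 72 h, then added 2.5 µl CellTiter-Blue for 2 h at 37 °C and read fluorescence at 560/590 nm.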

[2] = tested on: CAL-148; assay: normalised viability (% of control), CellTiter-Blue; higher = more viable cells (about 100 = DMSO control); settings: incubation time: 72 h
Procedure, shortened: (§1)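 The reported figure is normalised viability at a single listed concentration of the series. Breast cancer cell lines (20 µl suspension) went onto 384-well plates holding compound in 5 µl medium for 72 h. CellTiter-Blue (2.5 µl, 2 h, 37 °C) was read by fluorescence at 560/590 nm, and each plate was scaled to vehicle at 100 and a positive kill control at 0.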

[3] = tested on: MDA-MB-453; assay: as above; settings: incubation time: 72 h
Procedure, shortened: as §1

[4] = tested on: BT-474; assay: normalised viability (% of control), CellTiter-Blue; higher = more viable cells (about 100 = DMSO control); settings: incubation time: 72 h
Experimental: (§2)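 DSRT, CellTiter-Blue viability, 72 h incubation. Signal is normalised to DMSO and benzethonium chloride controls. Value is the normalised response at dose 3.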

[5] = tested on: BT-549; assay: as above; settings: incubation time: 72 h
Experimental: as §2

[6] = tested on: CAL-120; assay: as above; settings: incubation time: 72 h
Experimental: as §2

[7] = tested on: CAL-148; assay: as above; settings: incubation time: 72 h; remark: listed apart in the source
Experimental: as §2

[8] = tested on: CAL-51; assay: as above; settings: incubation time: 72 h
Experimental: as §2

[9] = tested on: CAL-85-1; assay: as above; settings: incubation time: 72 h
Experimental: as §2

[10] = tested on: DU-4475; assay: as above; settings: incubation time: 72 h
Experimental: as §2

[11] = tested on: HCC1143; assay: as above; settings: incubation time: 72 h
Experimental: as §2

[12] = tested on: HCC1599; assay: as above; settings: incubation time: 72 h
Experimental: as §2

[13] = tested on: HCC1937; assay: as above; settings: incubation time: 72 h
Experimental: as §2

[14] = tested on: HDQ-P1; assay: as above; settings: incubation time: 72 h
Experimental: as §2

[15] = tested on: Hs578T; assay: as above; settings: incubation time: 72 h
Experimental: as §2

[16] = tested on: MDA-MB-231; assay: as above; settings: incubation time: 72 h
Experimental: as §2

[17] = tested on: MDA-MB-436; assay: as above; settings: incubation time: 72 h
Experimental: as §2

[18] = tested on: MDA-MB-453; assay: as above; settings: incubation time: 72 h; remark: listed apart in the source
Experimental: as §2

[19] = tested on: MDA-MB-468; assay: as above; settings: incubation time: 72 h
Experimental: as §2

[20] = tested on: MFM-223; assay: as above; settings: incubation time: 72 h
Experimental: as §2

[21] = tested on: SK-BR-3; assay: as above; settings: incubation time: 72 h
Experimental: as §2

[22] = tested on: CAL-148; assay: as above; settings: incubation time: 72 h; remark: listed apart in the source
Experimental: (§3)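 DSRT, CellTiter-Blue viability, 72 h incubation. Signal is normalised to DMSO and benzethonium chloride controls. Value is the normalised response at dose 6.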

[23] = tested on: CAL-51; assay: as above; settings: incubation time: 72 h; remark: listed apart in the source
Experimental: as §3

[24] = tested on: CAL-85-1; assay: as above; settings: incubation time: 72 h; remark: listed apart in the source
Experimental: as §3

[25] = tested on: DU-4475; assay: as above; settings: incubation time: 72 h; remark: listed apart in the source
Experimental: as §3

[26] = tested on: HDQ-P1; assay: as above; settings: incubation time: 72 h; remark: listed apart in the source
Experimental: as §3

[27] = tested on: MDA-MB-453; assay: as above; settings: incubation time: 72 h; remark: listed apart in the source
Experimental: as §3

[28] = tested on: CAL-148; assay: as above; settings: incubation time: 72 h; remark: listed apart in the source
Experimental: (§4)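 DSRT, CellTiter-Blue viability, 72 h incubation. Signal is normalised to DMSO and benzethonium chloride controls. Value is the normalised response at dose 9.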

[29] = tested on: CAL-51; assay: as above; settings: incubation time: 72 h; remark: listed apart in the source
Experimental: as §4

[30] = tested on: HDQ-P1; assay: as above; settings: incubation time: 72 h; remark: listed apart in the source
Experimental: as §4

[31] = tested on: MDA-MB-453; assay: as above; settings: incubation time: 72 h; remark: listed apart in the source
Experimental: as §4

EC50, CellTiter-Blue viability [1]: 5400 nM
SMILES: CCCCCCCCc1ccc(CCC(N)(CO)CO)cc1 [Fingolimod]
normalised viability ([2]; 100 nM): 87%
normalised viability ([3]; 100 nM): 97.7%
normalised viability ([4]; 100 nM): 119%
normalised viability ([5]; 100 nM): 117%
normalised viability ([6]; 100 nM): 90.7%
normalised viability ([7]; 10 nM): 87.3%
normalised viability ([8]; 10 nM): 117%
normalised viability ([9]; 10 nM): 103%
normalised viability ([10]; 10 nM): 113%
normalised viability ([11]; 100 nM): 106%
normalised viability ([12]; 100 nM): 93.9%
normalised viability ([13]; 100 nM): 99%
normalised viability ([14]; 10 nM): 119%
normalised viability ([15]; 100 nM): 97.1%
normalised viability ([16]; 100 nM): 89.3%
normalised viability ([17]; 100 nM): 101%
normalised viability ([18]; 10 nM): 108%
normalised viability ([19]; 100 nM): 101%
normalised viability ([20]; 100 nM): 98.6%
normalised viability ([21]; 100 nM): 85.8%
normalised viability ([22]; 300 nM): 93.7%
normalised viability ([23]; 300 nM): 113%
normalised viability ([24]; 300 nM): 93.1%
normalised viability ([25]; 300 nM): 99.3%
normalised viability ([26]; 300 nM): 87.4%
normalised viability ([27]; 300 nM): 107%
normalised viability ([28]; 10000 nM): 62.2%
normalised viability ([29]; 10000 nM): 91.8%
normalised viability ([30]; 10000 nM): 0.67%
normalised viability ([31]; 10000 nM): 2.6%

EC50, CellTiter-Blue viability [1]: 8.31 nM
SMILES: Cn1c(=O)n(-c2ccc(C(C)(C)C#N)cc2)c2c3cc(-c4cnc5ccccc5c4)ccc3ncc21 [NVP-BEZ235]
normalised viability ([2]; 10 nM): 73.5%
normalised viability ([3]; 10 nM): 49.9%
normalised viability ([4]; 10 nM): 91.6%
normalised viability ([5]; 10 nM): 68.2%
normalised viability ([6]; 10 nM): 57.4%
normalised viability ([7]; 1 nM): 108%
normalised viability ([8]; 1 nM): 106%
normalised viability ([9]; 1 nM): 110%
normalised viability ([10]; 1 nM): 101%
normalised viability ([11]; 10 nM): 70.9%
normalised viability ([12]; 10 nM): 84.7%
normalised viability ([13]; 10 nM): 59.9%
normalised viability ([14]; 1 nM): 102%
normalised viability ([15]; 10 nM): 56.7%
normalised viability ([16]; 10 nM): 72.4%
normalised viability ([17]; 10 nM): 105%
normalised viability ([18]; 1 nM): 96.5%
normalised viability ([19]; 10 nM): 86.6%
normalised viability ([20]; 10 nM): 51.9%
normalised viability ([21]; 10 nM): 88.4%
normalised viability ([22]; 30 nM): 32.4%
normalised viability ([23]; 30 nM): 29.5%
normalised viability ([24]; 30 nM): 47.8%
normalised viability ([25]; 30 nM): 65.2%
normalised viability ([26]; 30 nM): 39.8%
normalised viability ([27]; 30 nM): 21.9%
normalised viability ([28]; 1000 nM): 0.2%
normalised viability ([29]; 1000 nM): 8.61%
normalised viability ([30]; 1000 nM): 34%
normalised viability ([31]; 1000 nM): 13.8%

SMILES: C/C(=C\c1csc(C)n1)[C@@H]1C[C@@H]2O[C@]2(C)CCC[C@H](C)[C@H](O)[C@@H](C)C(=O)C(C)(C)[C@@H](O)CC(=O)O1 [Patupilone]
EC50, CellTiter-Blue viability [1]: 4.4 nM
normalised viability ([2]; 10 nM): 32.3%
normalised viability ([3]; 10 nM): 47.3%
normalised viability ([4]; 10 nM): 66.4%
normalised viability ([5]; 10 nM): 29.4%
normalised viability ([6]; 10 nM): 51.6%
normalised viability ([7]; 1 nM): 93.1%
normalised viability ([8]; 1 nM): 104%
normalised viability ([9]; 1 nM): 73.7%
normalised viability ([10]; 1 nM): 95.4%
normalised viability ([11]; 10 nM): 66%
normalised viability ([12]; 10 nM): 111%
normalised viability ([13]; 10 nM): 25.5%
normalised viability ([14]; 1 nM): 125%
normalised viability ([15]; 10 nM): 36.7%
normalised viability ([16]; 10 nM): 22.7%
normalised viability ([17]; 10 nM): 66.2%
normalised viability ([18]; 1 nM): 88.7%
normalised viability ([19]; 10 nM): 54.4%
normalised viability ([20]; 10 nM): 81.3%
normalised viability ([21]; 10 nM): 28.4%
normalised viability ([22]; 30 nM): 19.6%
normalised viability ([23]; 30 nM): 28.8%
normalised viability ([24]; 30 nM): 27.2%
normalised viability ([25]; 30 nM): 18.5%
normalised viability ([26]; 30 nM): 48.4%
normalised viability ([27]; 30 nM): 24.8%
normalised viability ([28]; 1000 nM): 19.9%
normalised viability ([29]; 1000 nM): 13.6%
normalised viability ([30]; 1000 nM): 55.1%
normalised viability ([31]; 1000 nM): 20.9%
